The source of these data is patent US5968526A, “T cell epitopes of the major allergens from Dermatophagoides (house dust mite)” (Immulogic Pharamaceutical Corporation, priority 1995, dated 1999).

The experiment concerns T cell lines primed in vitro to Der p II. As to the kind of experiment: secondary proliferation of Der p II-primed T cell lines (Examples VIII, X, XI). It is filed as cell-based, human. The note with it: Der p II T-cell map and analogs. The method in brief: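 PBMC from house dust mite-allergic patients primed in vitro with native or recombinant Der p II at 20 μg/ml (or recombinant at 3 μg/ml), with x-irradiated (3500 Rads) autologous PBMC as antigen-presenting cells. Lines then challenged with Der p II-derived peptides; proliferation expressed as S.I., ranked sum scoring top three responses 3, 2, 1.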

As for “DP II-22.14: DKELEAVFEANQNTKTAKAE; unique peptide”, the “T-cell reactivity (DPII-22 series development)” value was “almost the same T-cell reactivity as the "parent" peptide”. DP II-22: QLEAVFEANQNTKTAKIEIKASIDGLEV: the “T-cell reactivity (DPII-22 series development)” value is given as “exhibits most of the reactivity found in the individual peptides”.
